Test: Seven days indicative acute toxicity after oral administration
Conditions: mouse, in vivo, mice
Experimental: The tested compounds were administered per os (p.o.) 15 minutes before the administration of the antigen: at least 6 rats were used for each dose. Seven days indicative acute toxicity after oral administration was assessed for the compounds of the invention, for example, a LD50 >800 mg/kg in mice was obtained for all the following compounds of the invention: […]

| Compound | LD50 at 168 h [mg/kg] |
| --- | --- |
| CC(C)Oc1ccccc1C=C1Oc2ccc(C(=O)O)cc2C1=O [5-carboxy-2-(2'-isopropoxy-benzylidene)-2H-benzofuran-3-one] | > 800 |
| COc1ccccc1C=C1Oc2ccc(C(=O)O)cc2C1=O [5-carboxy-2-(2'-methoxy-benzylidene)-2H-benzofuran-3-one] | > 800 |
| O=C(O)c1ccc2c(c1)C(=O)C(=Cc1cccs1)O2 [5-carboxy-2-(2'-thenylidene)-2H-benzofuran-3-one] | > 800 |
| COc1ccc(C=C2Oc3ccc(C(=O)O)cc3C2=O)cc1OC [5-carboxy-2-(3',4'-dimethoxy-benzylidene)-2H-benzofuran-3-one] | > 800 |
| CC(C)Oc1cccc(C=C2Oc3ccc(C(=O)O)cc3C2=O)c1 [5-carboxy-2-(3'-isopropoxy-benzylidene)-2H-benzofuran-3-one] | > 800 |
| COc1cccc(C=C2Oc3ccc(C(=O)O)cc3C2=O)c1 [5-carboxy-2-(3'-methoxy-benzylidene)-2H-benzofuran-3-one] | > 800 |
| COc1ccc(C=C2Oc3ccc(C(=O)O)cc3C2=O)cc1 [5-carboxy-2-(4'-methoxy-benzylidene)-2H-benzofuran-3-one] | > 800 |
| COc1cc(C=C2Oc3ccc(C(=O)O)cc3C2=O)cc(OC)c1OC [K 13364, 5-carboxy-2-(3',4',5'-trimethoxy-benzylidene)-2H-benzofuran-3-one] | > 800 |
| COc1ccc(OC)c(C=C2Oc3ccc(C(=O)O)cc3C2=O)c1 [K 13383, 5-carboxy-2-(2',5'-dimethoxy-benzylidene)-2H-benzofuran-3-one] | > 800 |
| COc1ccc(C=C2Oc3ccc(C(=O)O)cc3C2=O)c(OC)c1OC [K 13422, 5-carboxy-2-(2',3',4'-trimethoxy-benzylidene)-2H-benzofuran-3-one] | > 800 |
| COc1ccc(OC(C)C)c(C=C2Oc3ccc(C(=O)O)cc3C2=O)c1 [K 13432, 5-carboxy-2-(2'-isopropoxy-5'-methoxy-benzylidene)-2H-benzofuran-3-one] | > 800 |

From patent publication US4670457A, “2H-benzofuran-3-one-derivatives and process for their preparation” (Farmitalia Carlo Erba, S.p.A., priority 1978, dated 1987)
